Test results from patent US20100197760A1, “DISUBSTITUTED PHENYLPYRROLIDINES AS MODULATORS OF CORTICAL CATECHOLAMINERGIC NEUROTRANSMISSION” (NSAB, FILIAL AF NEUROSEARCH SWEDEN AB, SVERIGE, priority 2007, published 2010).
Where a name gives a salt, the structure may show the parent alone. Read-outs that look alike come from different tables or passages of the source.

Legend:
[1] = test system: DOPAC levels (3,4-dihydroxyphenylacetic acid) in the rat striatum; assay: In vivo neurochemistry: tissue content of DOPAC in rat striatum; design: species or system rat (male Sprague-Dawley); details: 100 μmol/kg s.c., 60 min after administration, %-increase from control value
Procedure: The measurement of the tissue content of DOPAC is well established in the field of research since the 1960's. In short, male Sprague-Dawely rats are administered the test compound 60 minutes prior to decapitation. The brain is rapidly taken out and dissected. The striatum is rapidly frozen and subsequently quantitatively analysed with respect to its content of DOPAC by means of HPLC and electrochemical detection. The number of animals used for each test compound/vehicle is 4/group.
Male Sprague-Dawley rats weighing 220-320 g are used throughout the experiments. Sixty (60) minutes following administration of the test substance, the rats are decapitated. Directly after decapitation the brain is removed from the skull and put on a glass petri bowl filled with ice. The limbic system (containing the nucleus accumbens—both the core and shell, most parts of the olfactory tubercle and ventral pallidum) is dissected using two thin, angled tweezers and put directly on foil on dry ice (carbon dioxide −78° C.). The striatum and cortex are then dissected and also put on dry ice. The time from decapitation until the last tissue is dissected varies from four to six minutes. The tissue is weighed using a Sartorius BP3105 connected to a computer and packed in labelled tin foil, then stored in an −80° C. freezer. Great care is taken in order to keep the tissue frozen until the time of neurochemical analysis. Each brain part is subsequently analyzed with respect to its content of monoamines and their metabolites.
The monoamine transmitter substances (NE (norepinephrine), DA (dopamine), 5-HT (serotonin)) as well as their amine (NM (normethanephrine), 3-MT (3-methoxytyramine)) and acid (DOPAC (3,4-dihydroxyphenylacetic acid), 5-HIAA (5-hydroxyindoleacetic acid), HVA (homovanillic acid)) metabolites are quantified in brain tissue homogenates by HPLC separations and electrochemical detection.
The analytical method is based on two chromatographic separations dedicated for amines or acids. Two chromatographic systems share a common auto injector with a 10-port valve and two sample loops for simultaneous injection on the two systems. Both systems are equipped with a reverse phase column (Luna C18(2), dp 3 μm, 50*2 mm i.d., Phenomenex) and electrochemical detection is accomplished at two potentials on glassy carbon electrodes (MF-1000, Bioanalytical Systems, Inc.). The column effluent is passed via a T-connection to the detection cell or to a waste outlet. This is accomplished by two solenoid valves, which block either the waste or detector outlet. By preventing the chromatographic front from reaching the detector, better detection conditions are achieved. The aqueous mobile phase (0.4 ml/min) for the acid system contains citric acid 14 mM, sodium citrate 10 mM, MeOH 15% (v/v) and EDTA 0.1 mM. Detection potentials relative to Ag/AgCl reference are 0.45 and 0.60V. The aqueous ion pairing mobile phase (0.5 ml/min) for the amine system contains citric acid 5 mM, sodium citrate 10 mM, MeOH 9% (v/v), MeCN 10.5% (v/v), decane sulfonic acid 0.45 mM, and EDTA 0.1 mM. Detection potentials relative to Ag/AgCl reference are 0.45 and 0.65V.

[2] = test system: DOPAC levels (3,4-dihydroxyphenylacetic acid) in the rat striatum; details: 100 μmol/kg s.c., data taken from Table 2 in Ref 1 (J. Med. Chem. 1994, 37, 2735); cited from earlier work
[3] = test system: extracellular levels of dopamine, norepinephrine and serotonin in striatum and prefrontal cortex; details: literature statement (Pliszka, 2005); cited from earlier work
[4] = test system: extracellular levels of dopamine, norepinephrine and serotonin in striatum and prefrontal cortex; assay: In vivo microdialysis in awake, freely moving rats; design: species or system rat (male Sprague-Dawley); details: mirtazapine 10 mg/kg s.c. (FIGS. 21 and 22)

SMILES | DOPAC %-increase [1] | melting point [°C] | other results
Fc1ccc(C2CCNC2)c(F)c1 (stereo not drawn) [Example 2, 3-(2,4-DIFLUOROPHENYL)PYRROLIDINE] | −22% | – | –
Clc1ccc(C2CCNC2)cc1Cl (stereo not drawn) [Example 1, 3-(3,4-DICHLOROPHENYL)PYRROLIDINE] | −45% | – | –
Fc1ccc(C2CCNC2)cc1F (stereo not drawn) (as salt: hydrochloric acid salt) [Example 5, 3-(3,4-DIFLUOROPHENYL)PYRROLIDINE] | – | 139 to 140 | –
CCCN1CCC(c2ccc(Cl)c(C(F)(F)F)c2)CC1 [Example 9 of WO01/46146, 4-(4-chloro-3-trifluoromethyl-phenyl)-1-propyl-piperidine, reference compound] | +94% | – | –
Fc1cc(F)cc(C2CCNC2)c1 (stereo not drawn) (as salt: oxalic acid salt) [Example 3, 3-(3,5-DIFLUOROPHENYL)PYRROLIDINE] | – | 199 to 200 | –
Clc1ccc(C2CCNC2)cc1Cl (stereo not drawn) (as salt: hydrochloric acid salt) [Example 1, 3-(3,4-DICHLOROPHENYL)PYRROLIDINE] | – | 136 to 137 | –
Fc1cc(F)cc(C2CCNC2)c1 (stereo not drawn) [Example 3, 3-(3,5-DIFLUOROPHENYL)PYRROLIDINE] | −19% | – | –
CCCN1CCC[C@@H](c2cccc(S(C)(=O)=O)c2)C1 [Example 16 of ref. 1] | – | – | DOPAC %-increase [2]: +150^2%
CNCC[C@@H](Oc1ccccc1C)c1ccccc1 [atomoxetine] | – | – | cortical DA and NE levels [3]: regionally selective increases in cortical DA and NE
Fc1ccc(C2CCNC2)cc1F (stereo not drawn) [Example 5, 3-(3,4-DIFLUOROPHENYL)PYRROLIDINE] | −37% | – | –
CN1CCC(c2ccc(F)c(F)c2)C1 (stereo not drawn) [Example 4, 3-(3,4-DIFLUOROPHENYL)-1-METHYLPYRROLIDINE] | −20% | – | –
CCCN1CCC(c2cc(F)cc(C(F)(F)F)c2)CC1 [Example 44 of WO01/46146, 4-(3-fluoro-5-trifluoromethyl-phenyl)-1-propyl-piperidine, reference compound] | +239% | – | –
Fc1ccc(C2CCNC2)c(F)c1 (stereo not drawn) (as salt: oxalic acid salt) [Example 2, 3-(2,4-DIFLUOROPHENYL)PYRROLIDINE] | – | 116 | –
CN1CCC(c2ccc(F)c(F)c2)C1 (stereo not drawn) (as salt: fumaric acid salt) [Example 4, 3-(3,4-DIFLUOROPHENYL)-1-METHYLPYRROLIDINE] | – | 140 to 142 | –
CN1CCN2c3ncccc3Cc3ccccc3C2C1 (stereo not drawn) [mirtazapine] | – | – | extracellular norepinephrine and dopamine, cortex versus striatum [4]: increase predominantly extracellular norepinephrine and dopamine in the cortex
